The results in this text go back to patent US20100016313A1, “INTESTINAL ALKALINE PHOSPHATASE MODULATORS AND USES THEREOF” (Burnham Institute for Medical Research, priority 2008, published 2010).

What is called IC50 is the concentration that inhibits the measured activity by half. Lower therefore signals higher potency.

In this test the target is T1, human IAP (Homo sapiens, UniProt P09923).
T1 construct: made in house; host or cells: COS-1 cells, transient expression from pCMV-Script; conditioned serum-free medium used as enzyme stock
T1 sequence (P09923 20-503 limits assumed): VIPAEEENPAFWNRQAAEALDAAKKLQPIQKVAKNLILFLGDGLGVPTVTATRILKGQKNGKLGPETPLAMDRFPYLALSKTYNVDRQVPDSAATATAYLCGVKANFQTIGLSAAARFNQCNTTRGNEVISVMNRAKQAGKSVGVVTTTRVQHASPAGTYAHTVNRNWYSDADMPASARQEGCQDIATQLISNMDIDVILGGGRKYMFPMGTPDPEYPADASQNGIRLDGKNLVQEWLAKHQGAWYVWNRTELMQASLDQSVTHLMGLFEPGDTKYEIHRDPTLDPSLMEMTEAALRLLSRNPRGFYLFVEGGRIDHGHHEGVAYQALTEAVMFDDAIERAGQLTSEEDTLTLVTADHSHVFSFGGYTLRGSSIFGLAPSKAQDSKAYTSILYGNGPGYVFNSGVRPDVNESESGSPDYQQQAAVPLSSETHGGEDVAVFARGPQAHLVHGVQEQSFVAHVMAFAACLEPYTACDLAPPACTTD
The experiment in a line: IAP assay using CDP-Star (chemiluminescent, dose response). It is filed as biochemical. The note with it: IAP modulators, Tables A-H, positive = inhibitor; for IC50: negative Hill coefficient = activator; for n (Hill coefficient): negative = activator. An excerpt: An expression vector pCMV-Script containing cDNA for human IAP, TNAP, PLAP, GCAP, mouse TNAP, dIAP, EAP or gIAP in secreted form (FLAG-tagged) is transfected into COS-1 cells for transient expression using a standard electroporation method. The GPI anchoring site is replaced by a FLAG sequence to make the proteins secreted into the media as well as to test their kinetics in a form immobilized by anti-FLAG antibody (Narisawa, et al, 2007). Medium is changed to serum free medium Opti-MEM (Invitrogen) 24 h later, and media containing secreted proteins was collected 66 hr after electroporation. Conditioned medium filtered by a 2 μm cellulose acetate membrane is supplemented with 0.1% BSA, aliquotted and stored at −80° C.
Human IAP is produced on a large scale to be used in the primary high throughput screening. For a maximum of 200,000 wells including a blank and negative control in each plate, approximately 1600 ml of the recombinant human IAP working solution (8 μl/well×200,000) is used. The working solution is a 1:80 dilution of the stock solution that has AP activity showing ΔOD405 (velocity) ˜300 in 5 min pNPP calorimetric assay. Therefore a minimum of 20 ml of the stock solution (1600÷80) is needed. An enzyme stock is prepared from ten 15 cm φ plates of COS-1 cells using 100 μg plasmid DNA [ten plates×(10 μg DNA/1×10^7 cells per 15 cm φ plate)].
Compound aliquots (4 μL at […] in 10% DMSO) are added to 8 μL of human IAP working solution of a the human IAP stock solution diluted 1:80 in assay buffer (250 mM DEA, pH 9.8, −2.5 mM MgCl2, −0.05 μM ZnCl2). The solution of substrate CDP-Star, disodium 2-chloro-5-(4-methoxyspiro{1,2-dioxetane-3,2′(5′-chloro)-tricyclo[3.3.1.1]3,7 decan}-4-yl)-1-phenyl phosphate (New England Biolabs), (8 μL of 125 μM in water) is added to each well. […] Dispensing of human IAP working solution and CDP-Star is processed using a WellMate bulk dispenser (Matrix). Plates (white 384-well small volume Greiner 784075) are incubated at room temperature for 30 min, and the luminescence signal is measured using a PerkinElmer EnVision multi-mode plate reader. L-Phenylalanine (1 mM final concentration) and 2% DMSO is utilized as an inhibition control and blank, respectively. Data analysis is processed using CBIS software (ChemInnovations, Inc).
The compound is diluted ([…] to 0.03 mM) and incubated with the human IAP enzyme for 30 min prior to addition of substrate. At the same time, human TNAP, human PLAP, human GCAP, mouse TNAP, mouse dIAP, mouse EAP and mouse gIAP is tested to determine enzyme specificity.

Turning to `CCOc1ccc(-c2cc(C(=O)O)[nH]n2)cc1` [Compound B9, 3-(4-ethoxyphenyl)-1H-pyrazole-5-carboxylic acid], the IC50 is more than 100 µM.

In turn, `COC(=O)c1cc(-c2ccc([N+](=O)[O-])cc2)[nH]n1` [Compound A10, methyl 5-(4-nitrophenyl)-1H-pyrazole-3-carboxylate] yielded an IC50 of more than 100 µM. As to `Cn1ccnc1Cc1ncnc(Nc2ccccc2)n1` [Compound H3, 4-[(1-methyl-4H-imidazol-2-yl)methyl]-N-phenyl-1,3,5-triazin-2-amine], the “n (Hill coefficient)” value is recorded as −1.32 and half-maximal inhibition (IC50) was put at 30.5 µM. Compound `Cc1ccc(Cl)c(N2C(=O)C(Cl)C(N3CCN(C)CC3)C2=O)c1Cl` (stereo not shown) [Compound H5, 3-chloro-1-(2,6-dichloro-3-methylphenyl)-4-(4-methylpiperazin-1-yl)pyrrolidine-2,5-dione] showed an IC50 of more than 100 µM. Same read-out and setting: the value for `COC(=O)c1cc(-c2ccc(Br)cc2)n[nH]1` [Compound A7, methyl 5-(4-bromophenyl)-1H-pyrazole-3-carboxylate] was more than 100 µM. Same read-out and setting: for `Nc1nc(N2C(=O)C3CC=CCC3C2=O)nn1-c1ccccc1` (stereo not shown) [Compound F12, 2-(5-amino-1-phenyl-1H-1,2,4-triazol-3-yl)-3a,4,7,7a-tetrahydro-1H-isoindole-1,3(2H)-dione] the value was more than 100 µM; for `COc1cccc(-c2cc(C(=O)O)[nH]n2)c1` [Compound B5, 3-(3-methoxyphenyl)-1H-pyrazole-5-carboxylic acid], more than 100 µM. `O=C1c2ccccc2C(=O)N1c1nc(Cc2ccccc2)n[nH]1` [Compound F11, 2-(3-benzyl-1H-1,2,4-triazol-5-yl)isoindoline-1,3-dione]: the “n (Hill coefficient)” value turned out to be 0.5445. As to `COc1ccc(OC)c(S(=O)(=O)Nc2cnc3ccccc3c2)c1` [Compound G2, 2,5-dimethoxy-N-(quinolin-3-yl)benzenesulfonamide], the IC50 is more than 100 µM. The same measure, in the same setting: for `CCOC(=O)c1cc(-c2ccc3c(c2)OCCO3)n[nH]1` [Compound B16, ethyl 3-(2,3-dihydrobenzo[b][1,4]dioxyin-6-yl)-1H-pyrazole-5-carboxylate] the value was more than 100 µM. The same measure, in the same setting: the value for `CCc1ccc(-c2cc(C(=O)O)[nH]n2)cc1` [Compound B6, 3-(4-ethylphenyl)-1H-pyrazole-5-carboxylic acid] was more than 100 µM.

With `O=C(CSc1nnc[nH]1)NCCOc1ccccc1` [Compound H1, 2-(4H-1,2,4-triazol-3-ylthio)-N-(2-phenoxyethyl)acetamide], the IC50 was more than 100 µM. Take `O=C1C2C3C=CC(C3)C2C(=O)N1c1nc(CCc2ccccc2)n[nH]1` (stereo not shown) [Compound F10]: the “n (Hill coefficient)” value is listed as 0.871. `COc1cc(C)c(Cl)cc1S(=O)(=O)Nc1cccnc1` [Compound G4, 2-methoxy-4-methyl-5-chloro-N-(pyridin-3-yl)benzenesulfonamide] displayed an IC50 of more than 100 µM. On the same count and under the same terms, the value for `O=c1cc(CCO)c2c(-c3ccccc3)n[nH]c2o1` [Compound E7, 4-(2-hydroxyethyl)-3-phenylpyrano[2,3-c]pyrazol-6(1H)-one] was more than 100 µM.

For `O=C(O)c1cc(-c2ccccc2Cl)[nH]n1` [Compound A1, 5-(2-chlorophenyl)-1H-pyrazole-3-carboxylic acid], the “n (Hill coefficient)” value worked out at 0.9625. In turn, `O=C(O)c1cc(-c2ccc(F)cc2)n[nH]1` [Compound B4, 3-(4-fluorophenyl)-1H-pyrazole-5-carboxylic acid] showed an IC50 of more than 100 µM. `Nc1ccc(-c2cc(C(=O)O)n[nH]2)cc1` [Compound A5, 5-(4-aminophenyl)-1H-pyrazole-3-carboxylic acid] returned an IC50 of more than 100 µM. The same measure, in the same setting: the value for `COC(=O)c1cc(-c2ccc(OC)cc2)[nH]n1` [Compound B14, methyl 3-(4-methoxyphenyl)-1H-pyrazole-5-carboxylate] was more than 100 µM; that for `O=C(O)c1cc(-c2ccc3c(c2)OCCO3)n[nH]1` [Compound B11, 3-(2,3-dihydrobenzo[b][1,4]dioxyin-6-yl)-1H-pyrazole-5-carboxylic acid] was more than 100 µM. For `O=C(O)c1cc(-c2ccccc2O)n[nH]1` [Compound B2, 3-(2-hydroxyphenyl)-1H-pyrazole-5-carboxylic acid], the “n (Hill coefficient)” value is −1.92 and the midpoint of inhibition, the IC50, lay at 7.85 µM. The like results for `O=C1C2CCCCC2C(=O)N1c1nc(Cc2ccccc2)n[nH]1` (stereo not shown) [Compound F2, 2-(3-benzyl-1H-1,2,4-triazol-5-yl)-hexahydro-1H-isoindole-1,3(2H)-dione] were, in that order, 1.01 and 0.0613 µM.

On to `O=C(O)c1[nH]nc2c1COc1ccccc1-2` [Compound E1, 2,4-dihydrochromeno[3,4-c]pyrazole-3-carboxylic acid], for which the “n (Hill coefficient)” value came to 0.533 and the IC50 worked out at 13.9 µM. Take `COC(=O)c1cc(-c2ccc(C)cc2C)n[nH]1` [Compound B13, methyl 3-(2,4-dimethylphenyl)-1H-pyrazole-5-carboxylate]: the “n (Hill coefficient)” value is given as −3.035 and the IC50 worked out at 66.1 µM. The like results for `CCOC(=O)c1cc(-c2cccc(C(F)(F)F)c2)[nH]n1` [Compound A6, ethyl 5-[3-(trifluoromethyl)phenyl]-1H-pyrazole-3-carboxylate] were, in that order, −1.45 and 45.4 µM.

On to `O=C(O)c1cc(-c2ccc(O)cc2)n[nH]1` [Compound B1, 3-(4-hydroxyphenyl)-1H-pyrazole-5-carboxylic acid], for which the “n (Hill coefficient)” value is listed as 1.1 and the midpoint of inhibition, the IC50, lay at 79.2 µM. As for `Cc1ccc(-c2cc(C(=O)O)[nH]n2)cc1C` [Compound B8, 3-(3,4-dimethylphenyl)-1H-pyrazole-5-carboxylic acid], the IC50 was more than 100 µM. For the compound `O=C1C2CC=CCC2C(=O)N1c1nc(Cc2ccccc2)n[nH]1` (stereo not shown) [Compound F8, 2-(3-benzyl-1H-1,2,4-triazol-5-yl)-3a,4,7,7a-tetrahydro-1H-isoindole-1,3(2H)-dione], the “n (Hill coefficient)” value was determined as 1.28 and the IC50 worked out at 0.503 µM. `O=C1C2CCCCC2C(=O)N1c1ncn[nH]1` (stereo not shown) [Compound F1, 2-(1H-1,2,4-triazol-5-yl)-hexahydro-1H-isoindole-1,3(2H)-dione]: the “n (Hill coefficient)” value was −2.03 and the IC50 amounted to 13.8 µM. The like results for `Cc1cc(O)oc2nnc(-c3ccccc3)c1-2` [Compound E6, 4-methyl-3-phenylpyrano[2,3-c]pyrazol-6-ol] were, in that order, −5 and 62.7 µM. As for `O=C(c1[nH]nc2c1COc1ccccc1-2)N1CCCC1` [Compound E2, (2,4-dihydrochromeno[3,4-c]pyrazol-3-yl)(pyrrolidin-1-yl)methanone], the IC50 is more than 100 µM.

In the case of `O=C1C2CC=CCC2C(=O)N1c1nc(-c2ccccc2)n[nH]1` (stereo not shown) [Compound F5, 2-(3-phenyl-1H-1,2,4-triazol-5-yl)-3a,4,7,7a-tetrahydro-1H-isoindole-1,3(2H)-dione], the “n (Hill coefficient)” value turned out to be 0.8895 and the IC50 was 0.0625 µM.

Turning to `O=C1C2CC=CCC2C(=O)N1c1nc(-c2ccco2)n[nH]1` (stereo not shown) [Compound F6, 2-[3-(furan-2-yl)-1H-1,2,4-triazol-5-yl]-3a,4,7,7a-tetrahydro-1H-isoindole-1,3(2H)-dione], the “n (Hill coefficient)” value amounted to 0.894 and the IC50 turned out to be 0.411 µM. For the compound `COc1ccc(Br)cc1S(=O)(=O)Nc1cnc2ccccc2c1` [Compound G1, 5-bromo-2-methoxy-N-(quinolin-3-yl)benzenesulfonamide], the “n (Hill coefficient)” value is recorded as 0.716.
